From patent US20030236218A1, “Aryl phosphate derivatives of d4T with selective activity against adenovirus and HIV” (priority 2002, published 2003)
Several values for one entry are separate records, joined by “and”; a condition that tells them apart may be missing. Equal values may be shown once.

What was measured:
Stability in plasma = type: in vitro ADME; settings: spiked plasma; 250 μM compound 113, 100 μM Ala-d4T-MP (followed for 1 day)
Experimental: Plasma samples (200 μL) were mixed 1:4 with acetone (800 μL) and vortexed for at least 30 seconds. Following centrifugation, the supernatant was transferred into a clean tube and was dried under nitrogen. A 50 μL solution of 50% methanol in 200 mM HCl was used to reconstitute the extraction residue, and 40 μL was injected into the HPLC.
(§1) The whole blood samples were placed in a 37° C. water bath, while plasma samples were stored at −20° C. At a predetermined time, an aliquot (100 μl) of spiked whole blood or plasma was extracted by adding 400 μl of acetone to induce precipitation of proteins, as described above.

[1] = Stability in simulated intestinal fluid; type: in vitro ADME; settings: 100 μM, 37° C.
Experimental: The spiked fluids were then placed in a 37° C. water bath. At a predetermined time, 100 μI aliquots of the spiked gastric or intestinal fluid were extracted by adding 400 μl of acetone as discussed above.

Stability in whole blood = type: in vitro ADME; settings: spiked whole blood 37° C.; 250 μM compound 113, 100 μM Ala-d4T-MP (followed for 1 day)
Experimental: as §1

[2] = Pharmacokinetic studies in mice, oral administration; type: in vivo, Balb/c mice; settings: for AUC / Cmax / Tmax / t1/2: plasma analyte = label, after oral 100 mg/kg compound 113
Experimental: Female Balb/c mice (6-8 weeks old) from Taconic (Germantown, N.Y.) were housed in a controlled environment (12-hours of light/12-hours of dark, 22±1° C., 60±10% relative humidity), which is fully accredited by the USDA. All rodents were housed in microisolator cages (Lab Products, Inc., NJ) containing autoclaved bedding. The mice were allowed free access to autoclaved pellet food and tap water throughout the study. All animal care procedures conformed to the Guide for the Care and Use of Laboratory Animals (National Research Council, National Academy Press, Washington D.C. 1996).
Sampling time points were 0, 2, 5, 10, 15, 30, 45, 60, 120, 240 and 360 minutes after the gavage.
(§2) All collected blood samples were heparinized and centrifuged at 7000×g for 5 minutes to separate the plasma fraction from the whole blood. The plasma samples were then processed immediately using the extraction procedure described above.
(§3) Pharmacokinetic modeling and parameter calculations were carried out using the WinNonlin Professional Version 3.0 (Pharsight, Inc., Mountain, Calif.) pharmacokinetics software (Chen et al., Pharm. Res., 16, 1003 (1999); Chen et al., Pharm. Res., 16, 117 (1999); Chen et al., J. Clin. Pharmacol., 39, 1248 (1999); Uckun et al., Clin. Cancer Res., 5, 2954 (1999); and Uckun et al., J. Pharmacol. Exp. Ther., 291, 1301 (1999)). An appropriate model was chosen on the basis of the lowest sum of weighted squared residuals, the lowest Schwartz Criterion (SC), the lowest Akaike's Information Criterion (AIC) value, the lowest standard errors of the fitted parameters, and the dispersion of the residuals. The elimination half-life was estimated by linear regression analysis of the terminal phase of the plasma concentration-time profile. The area under the concentration-time curve (AUC) was calculated according to the linear trapezoidal rule between the first sampling time (0 hours) and the last sampling time plus C/k, where C is the concentration of the last sampling and k is the elimination rate constant. The systemic clearance (CL) was determined by dividing the dose by the AUC. The metabolic clearance of the parent drug, the formation clearance of the metabolite, the clearance elimination of the metabolite, and the distribution clearance of the metabolite were estimated by simultaneous fitting of the concentration of parent drug and metabolites as a function of time curve to pharmacokinetic models (see FIGS. 7A & 8A) specified as a system of differential equations (Gabrielsson & Weiner, Phamacokinetic/Phamacodynamic Data Analysis: Concepts and Applications, Swedish Pharmaceutical Press (1997)).

[3] = Pharmacokinetic studies in mice, intravenous administration; type: in vivo, Balb/c mice; settings: for AUC / CL / Cmax / Vss / t1/2 / Tmax: plasma analyte = label
Experimental: Female Balb/c mice (6-8 weeks old) from Taconic (Germantown, N.Y.) were housed in a controlled environment (12-hours of light/12-hours of dark, 22±1° C., 60±10% relative humidity), which is fully accredited by the USDA. All rodents were housed in microisolator cages (Lab Products, Inc., NJ) containing autoclaved bedding. The mice were allowed free access to autoclaved pellet food and tap water throughout the study.
Blood samples (˜500 μL) were obtained from the ocular venous plexus by retro-orbital venipuncture at 0, 2, 5, 10, 15, 30, 45, 60, 120, 240 and 360 minutes after intravenous injection.
as §2, §3

[4] = estimate from composite curve of pooled data
[5] = after i.v. Ala-d4T-MP, model fit, C.V. of modeling in parentheses
[6] = after i.v. compound 113, model fit, C.V. of modeling in parentheses
[7] = after i.v. 75 mg/kg Ala-d4T-MP, estimate from composite curve of pooled data
[8] = after i.v. 75 mg/kg Ala-d4T-MP, mean ± S.E.M
[9] = after i.v. 100 mg/kg compound 113, estimate from composite curve of pooled data
[10] = after i.v. 100 mg/kg compound 113, mean ± S.E.M

For `Cc1cn([C@H]2C=C[C@@H](COP(=O)(O)NC(C)C(=O)O)O2)c(=O)[nH]c1=O` (stereo partly drawn) [Ala-d4T-MP, alaninyl-d4T-monophosphate], the “stability in plasma (in words)” value (Stability in plasma) was “stable”, the “stability in intestinal fluid (in words)” value [1] was “stable” and the “stability in whole blood (in words)” value (Stability in whole blood) was “stable”. For the same compound, the estimated bioavailability ([2]; metabolite = label, after oral administration of compound 113) was “approximately 12%”, the AUC [2, 4] was 1350.5 µM·min and the Cmax [2, 4] was 12.7 µM. For the same compound, the Tmax [2, 4] was 10.3 min, the t1/2 [2, 4] was 66.4 min and the AUC ([2]; mean ± S.E.M) was “(1355.4 ± 88.2) μM · min”. The Cmax ([2]; mean ± S.E.M) was 15.6 µM, the Tmax ([2]; mean ± S.E.M) was “(9.3 ± 0.9) min” and the t1/2 ([2]; mean ± S.E.M) was “(56.1 ± 8.5) min”. The “share of CLm1 in the total systemic clearance” value ([3]; after i.v. Ala-d4T-MP) was 99%, the “CLm1 (metabolic clearance of Ala-d4T-MP / formation clearance of d4T)” value [3, 5] was 15.6 ml/min/kg and 15.6 (16.6%) ml/min/kg and the “CLpd (distribution of Ala-d4T-MP to extravascular compartment)” value [3, 5] was 4.7 ml/min/kg and 4.7 (44.7%) ml/min/kg. The “CLm3 (metabolic clearance of Ala-d4T-MP / formation clearance of d4T)” value [3, 6] was 2.17 L/h/kg, the “CLm1d (distribution of Ala-d4T-MP to the extravascular compartment)” value [3, 6] was 47.1 ml/min/kg and 62.0 (69.8%) ml/min/kg and the “fraction of parent converted to the metabolite (fm)” value ([3]; metabolite = label, after i.v. compound 113) was 23%. It also gave an AUC [3, 7] of 11648.7 µM·min, a CL [3, 7] of 0.948 L/h/kg and a Cmax [3, 7] of 1210 µM. The Vss [3, 7] was 0.2755 L/kg, the t1/2 [3, 7] was 28.5 min and the AUC [3, 8] was “(11761.5 ± 447.2) μM · min”. The CL [3, 8] was “(15.7 ± 0.6) ml/min/kg”, the Cmax [3, 8] was 1660 µM and the Vss [3, 8] was “(412.6 ± 126.3) ml/kg”. The t1/2 [3, 8] was “(91.5 ± 54.5) min”, the AUC [3, 9] was 2854.8 µM·min and the Cmax [3, 9] was 67.4 µM. The Tmax [3, 9] was 5.9 min, the t1/2 [3, 9] was 129.2 min and the AUC [3, 10] was “(2795.9 ± 361.2) μM · min”. The Cmax [3, 10] was 69.3 µM, the Tmax [3, 10] was “(5.1 ± 0.7) min” and the t1/2 [3, 10] was “(138.8 ± 40.2) min”.
